Laboratory results from patent publication US12637481B2, “Boronic acid derivatives and therapeutic uses thereof” (QPEX BIOPHARMA, INC., priority 2020, dated 2026).
Read-outs that look alike come from different tables or passages of the source.

Columns and labels:
[1] = Serum activation of prodrug, monkey serum; format: in vitro ADME; settings: 50 μg/mL in monkey serum, room temperature, 1 hour, assayed for active drug by LC/MS/MS
Method: (§1) Serum activation: Compounds 1, 2, or II were solubilized in water and added to rat, dog, monkey, and human serum at a concentration of 50 μg/mL. The samples were incubated at room temperature for 1 hour then assayed for “active” drug content using an LC/MS/MS assay. Microsomal activation: Compounds 1, 2, or II were solubilized in water and added to rat, dog, monkey, and human liver microsomes at a concentration of 1 μM. The samples were incubated at room temperature for 1 hour then assayed for “active” drug content using an LC/MS/MS assay.

[2] = Serum activation of prodrug, human serum; format: in vitro ADME; settings: 50 μg/mL in human serum, room temperature, 1 hour, assayed for active drug by LC/MS/MS
Method: as §1

[3] = Microsomal activation of prodrug, monkey liver microsomes; format: in vitro ADME; settings: 1 μM in monkey liver microsomes, room temperature, assayed for active drug by LC/MS/MS; read-out: Half-life monkey micorsomes
Method: as §1

[4] = Microsomal activation of prodrug, human liver microsomes; format: in vitro ADME; settings: for half-life at 1 μM: 1 μM in human liver microsomes, room temperature, assayed for active drug by LC/MS/MS
Method: as §1

[5] = Microsomal activation of prodrug, dog liver microsomes; format: in vitro ADME; settings: 1 μM in dog liver microsomes, room temperature, assayed for active drug by LC/MS/MS
Method: as §1

[6] = Serum activation of prodrug, dog serum; format: in vitro ADME; settings: 50 μg/mL in dog serum, room temperature, 1 hour, assayed for active drug by LC/MS/MS
Method: as §1

[7] = Serum activation of prodrug, rat serum; format: in vitro ADME; settings: 50 μg/mL in rat serum, room temperature, 1 hour, assayed for active drug by LC/MS/MS
Method: as §1

[8] = Microsomal activation of prodrug, rat liver microsomes; format: in vitro ADME; settings: 1 μM in rat liver microsomes, room temperature, assayed for active drug by LC/MS/MS
Method: as §1

[9] = Crystallinity; format: physicochemical
[10] = Permeability/transport; format: in vitro ADME
[11] = Dynamic vapor sorption (DVS), hygroscopicity; format: physicochemical; settings: 25° C., 5 to 95% RH
Method: DVS analysis was carried out using a TA Instruments Q5000 Dynamic Vapor Sorption analyzer. The instrument was calibrated with standard weights and a sodium bromide standard for humidity. Approximately 20 mg of sample was loaded into a metal-coated quartz pan for analysis. The sample was analyzed at 25° C. with a maximum equilibration time of one hour in 10% relative humidity (RH) steps from 5 to 95% RH (adsorption cycle) and from 95 to 5% RH (desorption cycle). The movement from one step to the next occurred either after satisfying the equilibrium criterion of 0.01% weight change or, if the equilibrium criterion was not met, after one hour. The percent weight change values were calculated using Microsoft Excel®. The temperature for the DVS analysis can impact the outcome of the results.

Structure (SMILES) | half-life at 50 μg/mL [1] [min] | half-life at 50 μg/mL [2] [min] | half-life at 1 μM [3] [min] | half-life at 1 μM [4] [min] | human microsomal activation, compared in words ([4]; compared with Compound 2 or Compound II) | half-life at 1 μM [5] [min] | half-life at 50 μg/mL [6] [min] | half-life at 50 μg/mL [7] [min] | half-life at 1 μM [8] [min] | Crystallinity [9] | Permeability/transport [10] | Crystallinity ([9]; listed as drawing 11) | Human microsome activation t1/2 ([4]; human liver microsomes, as repeated in Table 2) | Hygroscopicity by dynamic vapor sorption (DVS) [11]
CC(C)C(=O)OCOC(=O)c1c(F)ccc2c1O[B-](O)(O)[C@@H]1C[C@H]21.[Na+] [crystalline Form A of Compound II′] |  |  |  |  |  |  |  |  |  |  |  |  |  | slightly hygroscopic
CC(C)C(=O)OCOC(=O)c1c(F)ccc2c1O[B-](O)(O)[C@@H]1C[C@H]21.[Na+] [crystalline Form B of Compound II′] |  |  |  |  |  |  |  |  |  |  |  |  |  | moderately hygroscopic

Second part, the compound after the results:

half-life at 50 μg/mL [1] [min] | half-life at 50 μg/mL [2] [min] | half-life at 1 μM [3] [min] | half-life at 1 μM [4] [min] | human microsomal activation, compared in words ([4]; compared with Compound 2 or Compound II) | half-life at 1 μM [5] [min] | half-life at 50 μg/mL [6] [min] | half-life at 50 μg/mL [7] [min] | half-life at 1 μM [8] [min] | Crystallinity [9] | Permeability/transport [10] | Crystallinity ([9]; listed as drawing 11) | Human microsome activation t1/2 ([4]; human liver microsomes, as repeated in Table 2) | Hygroscopicity by dynamic vapor sorption (DVS) [11] | Structure (SMILES)
> 60 | > 60 | 2 ± 1 | 28 ± 2 | significantly slower | 11 ± 1 | > 60 | > 60 | 3 ± 1 | Yes | High |  |  |  | CCCC(=O)OCOC(=O)c1c(F)ccc2c1OB(O)[C@@H]1C[C@H]21 [Compound 1]
> 60 | > 60 | 3 ± 2 | 8 ± 1 |  |  | > 60 | > 60 | 3 ± 2 | not crystalline | High | No |  |  | CC(=O)OCOC(=O)c1c(F)ccc2c1OB(O)[C@@H]1C[C@H]21 [Compound 2]
> 60 | > 60 | 2 ± 1 | 9 ± 5 |  | 23 ± 2 | > 60 | > 60 | 5 ± 3 | Yes | High |  | 9 + 5 min |  | CC(C)C(=O)OCOC(=O)c1c(F)ccc2c1OB(O)[C@@H]1C[C@H]21 [Compound II, (isobutyryloxy)methyl (1aR,7bS)-5-fluoro-2-hydroxy-1,1a,2,7b-tetrahydrobenzo[e]cyclopropa[c][1,2]oxaborinine-4-carboxylate]
